From patent publication US9303261B2, “Composition for controlling chromogenesis including microRNA” (Amorepacific Corporation, priority 2011, dated 2016)

Test system: tyrosinase mRNA
Experiment: Tyrosinase mRNA expression by real-time PCR after transfection of WM115 cells with miR-125b inhibitor
Format: cell-based, human
Conditions: melanoma cell line WM115, 75 uM transfected using liposome, about 60 hours, compared to Comparative Examples 1 and 2
Experimental: The present inventors used an inhibitor of […] to perform a loss-of-function study of miR-125b, in which the inhibitor of miR-125b is an oligonucleotide having a sequence complementary to that of miR-125b and can bind to miR-125b in cells to inhibit the function of the miR-125b.
75 uM of an inhibitor of miR-125b (model: IH-300595-05-0005, miRIDIAN Hairpin Inhibitor, Human hsa-miR-125b MIMAT0000423/MI0000446 (hsa-miR-125b), Dharmacon, Inc.; Example 2) was transfected into the melanoma cell line WM115 using liposome and allowed to move into the cells. […] After transfection, the cells were cultured in a 5% CO2 incubator at 37° C. for about 60 hours, and then RNA was isolated from the cells using 1 ml of Trizol reagent. Specifically, the cells were lysed using Trizol, and then centrifuged to remove the supernatant, and 0.35 ml of isopropanol was added to the residue to form nucleic acid pellets, which were then washed with 70% EtOH and dissolved in water to isolate RNA. About 1 ug of the RNA was made into cDNA using oligo dT and reverse transcriptase, and the cDNA was subjected to real-time PCR according to the TaqMan method (Applied Biosystems) using a primer (assay ID: Hs01099965_m1) specific to tyrosinase mRNA under the following conditions: reaction at 95° C. for 10 min; and then about 45 cycles of 10 sec at 95° C. and 1 min at 60° C. […]

Example 2: miRIDIAN Hairpin Inhibitor, Human hsa-miR-125b (IH-300595-05-0005, Dharmacon); oligonucleotide with sequence complementary to miR-125b
expression level of tyrosinase mRNA (normalized to GAPDH): significantly increased
